Source: patent US20070020193A1, “Dronabinol compositions and methods for using same” (priority 2005, published 2007)

Tests used:
[1] = Example 1 single rising dose inhaled delta-9-THC study: plasma pharmacokinetics
Experimental: A randomized, double blind, placebo controlled, three way crossover, single rising dose human clinical study in two sequential groups (Groups I and II) of nine young healthy male subjects (18-45 years of age and body mass index (BMI) of 20-26 kg/m^2) of a metered dose inhalation composition according to one embodiment the present invention was conducted. Each subject received two ascending single doses of inhaled delta-9-THC and one single dose of inhaled placebo according to a three-way crossover balanced incomplete block design. The administered composition is detailed in Table 1. Composition I provides 0.3 mg per actuation, while Composition II provides 1.2 mg per actuation.
Each sequential dose level or period was separated by a washout period of two weeks, during which an interim safety and pharmacokinetic analysis was performed. A third group (Group III) of nine elderly healthy male and female subjects (65-80 years old and BMI 18-30 kg/m^2) was added after completion of the sixth study period to participate in a single treatment period. […] Five dose levels were evaluated: 0.3 mg, 1.2 mg, and 2.4 mg in Group I, 3.6 mg, 7.2 mg, and 9.6 mg in Group II, and 3.6 mg in Group III. Subjects were confined to the study center from the day prior to dosing until the 48 hour blood sample. Subjects returned to the center for 72, 96 and 120 hour pharmacokinetic samples. Various pharmacokinetic and pharmacodynamic measurements and sampling were taken according to the Assessment Flow Charts in FIG. 1 and FIG. 2. Safety was measured by monitoring adverse events, physical examination, clinical laboratory and pulmonary function tests, vital signs, 12 lead ECG, and telemetry.
Safety, pharmacokinetic and pharmacodynamic variables were estimated. Plasma concentrations of delta-9-THC (THC), 11-hydroxy-tetrahydrocanabinol (11-OH-THC) and delta-9-tetrahydrocannbinol-carboxylic acid (THC-COOH) were determined for pharmacokinetic analysis.
(§1) Whole blood samples were collected according to the assessment flowchart in EDTA tubes through venepuncture or indwelling catheter. Samples were immediately placed on ice and subsequently centrifuged within 30 minutes at 1,500 g for 10 minutes. Plasma was transferred into a 5 ml screw cap polypropylene tube, stoppered and stored at below minus 20° C. until transfer to the analytical laboratory for analysis. […] The measurement ranges were 0.05-30 ng/ml for delta-9-THC, 0.04-30 ng/ml for 11-OH-THC, and 0.25-10 ng/ml for THC-COOH.
Number of subjects, mean, standard deviation, coefficient variable (%) and geometric mean were calculated for all pharmacokinetic parameters.
For Example 1: A mixed ANOVA model with group and dose fixed effect and subject within group by dose as random effect was performed on the logarithms of the dose normalized pharmacokinetic parameters AUC, AUC0-t and Cmax. The overall treatment effect was tested by conventional F-test with Satterthwaites correction. Dose proportionality was tested using Helmert Contrasts and Reverse Helmert Contrasts. The within and between subject coefficient of variances were calculated from the estimated covariance parameters. Per dose level geometric means with 90% confidence interval were calculated for the dose-normalized values from the least squared means analysis outcomes. The difference between young and elderly subjects was explored using a one-way ANOVA.

[2] = Example 2 multiple rising dose inhaled delta-9-THC study: plasma pharmacokinetics
Experimental: A randomized, double-blind, placebo-controlled, multiple rising dose safety, tolerability, pharmacokinetic and pharmacodynamic study to assess two dose levels of inhaled delta-9-THC was conducted. Dose levels were studied in ascending order. Two consecutive groups (n=9/group) of healthy subjects were studied (Groups I and II). […] There was a lapse of at least 10 days between the groups for interim safety and pharmacokinetic analysis. Two dose levels were studied in ascending order. […] Subjects in each treatment Group (I or II) received single and multiple doses of inhaled delta-9-THC according to the following schedule:
For both dose levels, the first and the last dose of study drug was given under fasted conditions. Subjects were confined to the study site from the evening of Day −2 (Day 1 is the day of administration of the first dose of study drug) until the 120-hour blood sample following the final dose of study drug, resulting in an 18-day confinement period for subjects in Group I and a 25-day confinement period for Group II. Between the completion of Group I and the start of Group II, an interim safety and pharmacokinetic analysis was performed. Based on the results of the interim analyses, the dose level for investigation in Group II was determined.
Two MDI dosage strengths were used corresponding to the same formulations used in Example 1: one delivering 0.3 mg delta-9-THC (or placebo) per actuation and one delivering 1.2 mg delta-9-THC (or placebo) per actuation. The MDI consisted of a pressurized (via propellants) container and a metered-dose valve. The propellants provided the necessary force to expel the drug, and also acted as a solvent and diluent. The canister unit was provided within a mouthpiece (oral adapter), to expel an exact amount of drug, in the proper particle size distribution, upon each actuation. Two basic formulations containing 0.3 and 1.2 mg of delta-9-THC per 50 μL were developed with propellant 1,1,1,2 tetrafluoroethane 134a (HFA 134a), and ethanol as solvent. The formulations were made in accordance with the composition used in Example 1.
as §1
For Example 2: The statistical analysis encompassed an exploratory analysis of the single and multiple dose pharmacokinetics and dose proportionality of two dose levels of inhaled delta-9-THC in healthy subjects. Descriptive statistics included number of subjects, mean, standard deviation, coefficient of variation (%) and geometric mean for all pharmacokinetic parameters.
The exploratory analysis was performed on the logarithms of the dose-normalized pharmacokinetic parameters AUC(0-inf), AUC(0-t), AUC(0-τ) and Cmax. Dose proportionality was tested both at single dose and at multiple dose (steady state) by comparing the dose groups for all pharmacokinetic parameters by an analysis of variance with dose as fixed effect.
Dose proportionality was tested by the contrast between the dose groups. For this contrast on the logarithmic scale, p-values were given. After anti-logarithmic transformation, the resultant ratios of geometric means and 90% confidence intervals were given.
Accumulation was tested by comparing the steady state values for AUC(0-τ) with the single dose values for AUC(0-τ) by a mixed model analysis of variance with dose and day (with levels single dose and steady state) as fixed effects and subject within dose as random effect.

CCCCCc1cc(O)c2c(c1)OC(C)(C)C1CCC(CO)=CC21 (stereo not shown) [11-OH-THC, 11-hydroxy-tetrahydrocanabinol]
Cmax and AUC versus dose ([1]; 7.2 and 9.6 mg doses): less than proportional increase | Cmax and AUC versus dose ([1]; Groups I and II, doses from 0.3-3.6 mg): dose-related increase | Cmax ([1]; plasma, after 2.4 mg of delta-9-THC administered by MDI (FIGS. 6 and 7)): 0.77 ng/mL | achievement of steady state ([2]; 1.2 mg delta-9-THC three times daily): apparently reached after six days of dosing | Cmax, Geometric Mean (Range) ([2]; 1.2 mg m.d. (three times daily), Day 12, Group I): 0.54 (0.26-1.26) ng/mL | AUC(0-8), Arithmetic Mean (SD) ([2]; 1.2 mg m.d., Day 12, Group I): 2.07 (0.99) ng · h/mL | AUC(0-8), Geometric Mean (Range) ([2]; 1.2 mg m.d., Day 12, Group I): 1.89 (1.13-3.48) ng · h/mL | Cmax, Arithmetic Mean (SD) ([2]; 1.2 mg m.d., Day 12, Group I): 0.61 (0.36) ng/mL | tmax, Arithmetic Mean (SD) ([2]; 1.2 mg m.d., Day 12, Group I): 0.48 (0.36) h | tmax, median (range) ([2]; 1.2 mg m.d., Day 12, Group I): 0.42 (0.17-1.00) h | t½, Arithmetic Mean (SD) ([2]; 1.2 mg m.d., Day 12, Group I): 14.9 (6.08) h | t½, Geometric Mean (Range) ([2]; 1.2 mg m.d., Day 12, Group I): 13.9 (7.41-25.2) h | AUC(0-8), Arithmetic Mean (SD) ([2]; 1.2 mg s.d., Day 1): 1.50 (0.88) ng · h/mL | AUC(0-8), Geometric Mean (Range) ([2]; 1.2 mg s.d., Day 1): 1.26 (0.41-2.66) ng · h/mL | AUC(0-inf), Arithmetic Mean (SD) ([2]; 1.2 mg s.d., Day 1): 1.93 (1.22) ng · h/mL | AUC(0-inf), Geometric Mean (Range) ([2]; 1.2 mg s.d., Day 1): 1.56 (0.49-3.39) ng · h/mL | tmax, Arithmetic Mean (SD) ([2]; 1.2 mg s.d., Day 1): 0.48 (0.75) h | tmax, median (range) ([2]; 1.2 mg s.d., Day 1): 0.17 (0.17-2.00) h | t½, Arithmetic Mean (SD) ([2]; 1.2 mg s.d., Day 1): 4.19 (1.67) h | t½, Geometric Mean (Range) ([2]; 1.2 mg s.d., Day 1): 3.91 (2.55-6.01) h | Cmax, Arithmetic Mean (SD) ([2]; 1.2 mg s.d., Day 1, plasma): 0.86 (0.57) ng/mL | Cmax, Geometric Mean (Range) ([2]; 1.2 mg s.d., Day 1, plasma): 0.63 (0.10-1.55) ng/mL | Cmax, Geometric Mean (Range) ([2]; 3.6 mg m.d. (three times daily), Day 19, Group II): 2.87 (1.27-6.97) ng/mL | AUC(0-8), Arithmetic Mean (SD) ([2]; 3.6 mg m.d., Day 19, Group II): 10.1 (6.13) ng · h/mL | AUC(0-8), Geometric Mean (Range) ([2]; 3.6 mg m.d., Day 19, Group II): 8.69 (4.06-19.8) ng · h/mL | Cmax, Arithmetic Mean (SD) ([2]; 3.6 mg m.d., Day 19, Group II): 3.40 (2.17) ng/mL | tmax, Arithmetic Mean (SD) ([2]; 3.6 mg m.d., Day 19, Group II): 0.27 (0.20) h | tmax, median (range) ([2]; 3.6 mg m.d., Day 19, Group II): 0.17 (0.17-0.67) h | t½, Arithmetic Mean (SD) ([2]; 3.6 mg m.d., Day 19, Group II): 57.3 (37.9) h | t½, Geometric Mean (Range) ([2]; 3.6 mg m.d., Day 19, Group II): 39.5 (5.65-94.2) h | AUC(0-8), Arithmetic Mean (SD) ([2]; 3.6 mg s.d., Day 1): 5.15 (3.04) ng · h/mL | AUC(0-8), Geometric Mean (Range) ([2]; 3.6 mg s.d., Day 1): 4.44 (2.22-9.46) ng · h/mL | AUC(0-inf), Arithmetic Mean (SD) ([2]; 3.6 mg s.d., Day 1): 6.82 (3.98) ng · h/mL | AUC(0-inf), Geometric Mean (Range) ([2]; 3.6 mg s.d., Day 1): 5.86 (3.03-11.6) ng · h/mL | tmax, Arithmetic Mean (SD) ([2]; 3.6 mg s.d., Day 1): 0.18 (0.01) h | tmax, median (range) ([2]; 3.6 mg s.d., Day 1): 0.17 (0.17-0.20) h | t½, Arithmetic Mean (SD) ([2]; 3.6 mg s.d., Day 1): 5.98 (2.91) h | t½, Geometric Mean (Range) ([2]; 3.6 mg s.d., Day 1): 5.44 (2.96-11.0) h | Cmax, Arithmetic Mean (SD) ([2]; 3.6 mg s.d., Day 1, plasma): 2.21 (1.37) ng/mL | Cmax, Geometric Mean (Range) ([2]; 3.6 mg s.d., Day 1, plasma): 1.91 (1.12-4.38) ng/mL | achievement of steady state ([2]; 3.6-mg dose level three times daily): achieved after seven or eight days of dosing | accumulation during multiple dosing ([2]; 8-hours dosing interval): accumulation occurred during multiple dosing | Ratio AUC(0-8) m.d./AUC(0-8) s.d. (Accumulation factor), Mean ([2]; Group I, 1.2 mg): 1.59 | Ratio AUC(0-8) m.d./AUC(0-inf) s.d. (Linearity), Mean ([2]; Group I, 1.2 mg): 1.30 | Ratio AUC(0-8) m.d./AUC(0-8) s.d. (Accumulation factor), Mean ([2]; Group II, 3.6 mg): 2.10 | Ratio AUC(0-8) m.d./AUC(0-inf) s.d. (Linearity), Mean ([2]; Group II, 3.6 mg): 1.55 | dose proportionality: geometric mean ratio (3.6 mg:1.2 mg) of dose-normalized AUC(0-8) (90% confidence interval) ([2]; Multiple dose): 1.53 (0.87-2.69) | dose proportionality: geometric mean ratio (3.6 mg:1.2 mg) of dose-normalized Cmax (90% confidence interval) ([2]; Multiple dose): 1.79 (0.95-3.36) | dose proportionality: geometric mean ratio (3.6 mg:1.2 mg) of dose-normalized AUC(0-8) (90% confidence interval) ([2]; Single dose): 1.18 (0.60-2.33) | dose proportionality: geometric mean ratio (3.6 mg:1.2 mg) of dose-normalized AUC(0-inf) (90% confidence interval) ([2]; Single dose): 1.25 (0.61-2.57) | dose proportionality: geometric mean ratio (3.6 mg:1.2 mg) of dose-normalized AUC(0-t) (90% confidence interval) ([2]; Single dose): 1.43 (0.64-3.20) | dose proportionality: geometric mean ratio (3.6 mg:1.2 mg) of dose-normalized Cmax (90% confidence interval) ([2]; Single dose): 1.01 (0.42-2.42) | Cmax, fold lower compared to the parent compound ([2]; after multiple dosing): ~13 fold | exposure compared to the parent drug (AUC(0-8)) ([2]; after multiple dosing): approximately two-fold lower | Cmax, fold lower compared to the parent compound ([2]; after single dosing): approximately 25 fold | dose proportionality of pharmacokinetic parameters ([2]; after single or multiple dose administration): not found to deviate significantly | plasma concentration-time curve, elimination profile ([2]; both dose levels): at least a bi-phasic elimination profile | time of peak plasma concentration ([2]; both dose levels, post-dose): between 10 minutes and 2 hours post-dose | exposure compared to the parent drug (AUC(0-inf)) ([2]; following single dose administration): approximately four-fold lower | Cmax and AUC values versus dose ([2]; single and multiple dose administration, 1.2 and 3.6 mg): Dose-related increases | Terminal elimination half-lives (summary estimate) ([2]; summary, best estimated after multiple dosing): ~40 h
